Values quoted from earlier work as cited in patent publication US10136666B2, “Deep eutectic solvents and flavour generation” (NESTEC S.A., priority 2013, dated 2018).

Conditions: from literature values

amount that would dissolve in 60 g water: about 33 g
SMILES: NCCC(=O)O [β-alanine]
